Measurements taken from BindingDB's records for doi:10.1016/j.ejmech.2010.02.027 (University of Florida, 2010).

Each molecule was assayed against Neuronal acetylcholine receptor subunit alpha-4/beta-2 (Rattus norvegicus, UniProt P09483+P12390) (assay: Displacement of [3H]cytisine from alpha4beta2 nAChR in rat brain membrane after 3 hrs).
Chain of Neuronal acetylcholine receptor subunit alpha-4/beta-2 (P09483 whole entry): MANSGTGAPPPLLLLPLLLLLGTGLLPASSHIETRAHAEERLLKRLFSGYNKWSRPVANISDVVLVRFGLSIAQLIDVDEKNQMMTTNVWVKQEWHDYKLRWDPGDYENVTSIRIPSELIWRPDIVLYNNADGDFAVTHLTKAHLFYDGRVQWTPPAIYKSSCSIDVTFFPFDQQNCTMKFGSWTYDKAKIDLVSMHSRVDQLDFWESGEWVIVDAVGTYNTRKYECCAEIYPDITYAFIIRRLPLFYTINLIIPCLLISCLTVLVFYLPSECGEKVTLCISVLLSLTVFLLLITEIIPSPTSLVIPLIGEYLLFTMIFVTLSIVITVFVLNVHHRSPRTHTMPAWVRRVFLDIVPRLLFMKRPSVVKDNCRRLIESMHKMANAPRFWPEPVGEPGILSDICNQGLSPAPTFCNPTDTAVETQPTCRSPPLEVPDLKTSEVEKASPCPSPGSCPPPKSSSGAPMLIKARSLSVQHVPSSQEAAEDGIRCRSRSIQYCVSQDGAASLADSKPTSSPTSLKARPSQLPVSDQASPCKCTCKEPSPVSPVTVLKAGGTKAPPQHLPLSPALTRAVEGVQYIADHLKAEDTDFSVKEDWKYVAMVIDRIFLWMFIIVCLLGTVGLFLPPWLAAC
Chain of Neuronal acetylcholine receptor subunit alpha-4/beta-2 (P12390 whole entry): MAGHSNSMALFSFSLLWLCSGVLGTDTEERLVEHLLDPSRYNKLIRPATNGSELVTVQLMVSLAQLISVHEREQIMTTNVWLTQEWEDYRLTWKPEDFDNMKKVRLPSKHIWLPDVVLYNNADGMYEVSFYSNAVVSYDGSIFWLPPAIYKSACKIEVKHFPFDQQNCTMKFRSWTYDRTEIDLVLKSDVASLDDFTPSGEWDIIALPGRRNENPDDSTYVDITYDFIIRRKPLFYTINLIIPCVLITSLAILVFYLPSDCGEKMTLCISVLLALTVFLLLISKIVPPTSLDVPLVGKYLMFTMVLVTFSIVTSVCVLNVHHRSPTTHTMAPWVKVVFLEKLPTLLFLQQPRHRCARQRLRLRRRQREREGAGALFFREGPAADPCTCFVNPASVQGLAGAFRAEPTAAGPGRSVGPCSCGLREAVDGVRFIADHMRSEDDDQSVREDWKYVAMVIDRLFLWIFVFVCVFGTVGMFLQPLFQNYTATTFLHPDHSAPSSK

| Compound | Ki [nM] |
| --- | --- |
| CC(=O)Nc1ccc(/C=C2\CCCN=C2c2cccnc2)cc1 [N-(4-((2-(pyridin-3-yl)-5,6-dihydropyridin-3(4H)-ylidene)methyl)phenyl)acetamide] | 420 |
| C(=C1/CCCN=C1c1cccnc1)/c1cc2ccccc2o1 [3-(Benzofuran-2-ylmethylene)anabaseine] | 772 |
| CCCc1ccc(/C=C2\CCCN=C2c2cccnc2)cc1 [3-(4-n-Propylbenzylidene)anabaseine] | 51 |
| CN(C)c1ccc(/C=C2\CCCN=C2c2cccnc2)cc1 [3-(4-Dimethylaminobenzylidene)anabaseine] | 770 |
| CC(=O)Oc1ccc(/C=C2\CCCN=C2c2cccnc2)cc1 [3-(4-Acetoxybenzylidene)anabaseine] | 602 |
| CCC(CC)Oc1cc(OC)ccc1/C=C1\CCCN=C1c1cccnc1 [3-[2-(Pentan-3-yloxy)-4-methoxybenzylidene]anabaseine] | 367 |
| COc1cc(/C=C2\CCCN=C2c2cccnc2)cc(OC)c1OC [3-(3,4,5-Trimethoxybenzylidene)anabaseine] | 669 |
| Nc1ccc(/C=C2\CCCN=C2c2cccnc2)cc1 [3-(4-Aminobenzylidene)anabaseine] | 921 |
| COc1ccc(/C=C2\CCCN=C2c2cccnc2)c(OC(C)C)c1 [3-(2-i-Propoxy-4-methoxybenzylidene)anabaseine] | 770 |
